Results published in US9988400B2 (Genentech, Inc., priority 2013, dated 2018).

Each molecule was assayed against T1, HEK cells stably transfected with tetracycline inducible hNR1 and hNR2A (Homo sapiens, UniProt Q05586+Q12879) (assay: Assay 1: Cell-Based Assay, cytosolic calcium response to positive allosteric modulators (with 30 μM glycine and 300 nM L-glutamate, EC30)). Conditions: Table 3; cytosolic calcium response, with 30 μM glycine and 300 nM L-glutamate (EC30); — = no plateau was reached.
T1 construct: expressed in transfected cells; host or cells: HEK cells, stably transfected, tetracycline/doxycycline inducible
T1 sequence (Q12879 23-1464, other chains not shown): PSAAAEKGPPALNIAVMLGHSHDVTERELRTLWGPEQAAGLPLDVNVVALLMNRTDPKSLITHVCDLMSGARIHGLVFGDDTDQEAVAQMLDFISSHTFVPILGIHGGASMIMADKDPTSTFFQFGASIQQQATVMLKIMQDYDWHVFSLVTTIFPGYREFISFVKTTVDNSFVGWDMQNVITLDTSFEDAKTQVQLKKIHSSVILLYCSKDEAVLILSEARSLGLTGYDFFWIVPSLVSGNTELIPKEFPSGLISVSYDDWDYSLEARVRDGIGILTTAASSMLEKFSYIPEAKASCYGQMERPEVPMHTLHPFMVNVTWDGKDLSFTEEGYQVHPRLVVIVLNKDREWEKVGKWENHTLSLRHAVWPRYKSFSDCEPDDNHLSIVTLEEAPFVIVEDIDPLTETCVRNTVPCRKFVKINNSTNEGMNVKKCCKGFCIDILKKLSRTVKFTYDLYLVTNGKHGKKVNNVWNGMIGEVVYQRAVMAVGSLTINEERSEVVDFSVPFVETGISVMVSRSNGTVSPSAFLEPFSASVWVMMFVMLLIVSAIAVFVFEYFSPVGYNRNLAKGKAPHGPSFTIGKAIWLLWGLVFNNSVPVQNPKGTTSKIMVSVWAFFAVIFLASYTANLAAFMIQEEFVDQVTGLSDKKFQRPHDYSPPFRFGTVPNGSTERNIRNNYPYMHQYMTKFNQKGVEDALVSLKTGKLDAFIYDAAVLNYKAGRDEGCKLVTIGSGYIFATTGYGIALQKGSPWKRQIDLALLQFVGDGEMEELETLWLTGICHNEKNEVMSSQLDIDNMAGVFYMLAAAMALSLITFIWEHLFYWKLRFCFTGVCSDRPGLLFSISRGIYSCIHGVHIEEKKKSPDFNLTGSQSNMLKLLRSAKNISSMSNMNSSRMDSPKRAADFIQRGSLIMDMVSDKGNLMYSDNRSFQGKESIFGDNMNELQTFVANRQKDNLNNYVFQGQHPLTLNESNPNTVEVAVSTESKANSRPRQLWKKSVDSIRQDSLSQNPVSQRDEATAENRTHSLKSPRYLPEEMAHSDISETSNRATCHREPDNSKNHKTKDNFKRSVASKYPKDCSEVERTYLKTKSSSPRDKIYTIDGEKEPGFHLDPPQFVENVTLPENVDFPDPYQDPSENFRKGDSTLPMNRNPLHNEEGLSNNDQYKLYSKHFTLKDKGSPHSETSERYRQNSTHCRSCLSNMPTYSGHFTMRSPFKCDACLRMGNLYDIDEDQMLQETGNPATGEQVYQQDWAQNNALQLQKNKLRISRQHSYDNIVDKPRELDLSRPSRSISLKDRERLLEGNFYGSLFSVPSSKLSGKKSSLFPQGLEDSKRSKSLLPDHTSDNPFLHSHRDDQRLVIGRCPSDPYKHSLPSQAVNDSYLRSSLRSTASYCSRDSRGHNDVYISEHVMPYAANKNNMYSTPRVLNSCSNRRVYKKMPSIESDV
How it was run: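 Cells induced 24 h with 7.5 μg mL^−1 doxycycline plus 500 μM (+)-ketamine, loaded 60 min at 37 °C with calcium dye in Mg-free HBSS (1.8 mM Ca, probenecid, 10 μM (+)-ketamine, pH 7.15). Peak RFU over 5 min after compound addition, scaled to 100 μM L-glutamate (100%) and 0 μM (0%); four-parameter Hill fit for EC50, max % if no plateau.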

Compared with `Cc1sc2nc(Cn3nc(C(F)(F)F)cc3Cl)cc(=O)n2c1-c1cscn1` [compound 151, 7-[[5-chloro-3-(trifluoromethyl)pyrazol-1-yl]methyl]-2-methyl-3-thiazol-4-yl-thiazolo[3,2-a]pyrimidin-5-one], `Cc1sc2nc(Cn3nc(C(F)(F)F)cc3Cl)cc(=O)n2c1-c1ncco1` [compound 158, 7-[[5-chloro-3-(trifluoromethyl)pyrazol-1-yl]methyl]-2-methyl-3-oxazol-2-yl-thiazolo[3,2-a]pyrimidin-5-one] is 2.6-fold higher in EC50: 0.538 µM for the first, 1.42 µM for the second.

First: CCNC(=O)c1c(C)sc2nc(CN(CC)c3ccc(Cl)cn3)cc(=O)n12 [compound 152, 7-[[(5-chloro-2-pyridyl)-ethyl-amino]methyl]-N-ethyl-2-methyl-5-oxo-thiazolo[3,2-a]pyrimidine-3-carboxamide]
Second: CCNC(=O)c1c(C)sc2nc(Cn3nc(Cl)cc3Cl)cc(=O)n12 [compound 164, 7-[(3,5-dichloropyrazol-1-yl)methyl]-N-ethyl-2-methyl-5-oxo-thiazolo[3,2-a]pyrimidine-3-carboxamide]
The EC50 of the first is 5.1-fold higher: 2.85 µM for the first, 0.562 µM for the second.

Compared with `Cc1sc2nc(Cn3nncc3C3CC3)cc(=O)n2c1C1CC1CO` (centres unmarked) [compound 153, 7-[(5-Cyclopropyltriazol-1-yl)methyl]-3-[2-(hydroxymethyl)cyclopropyl]-2-methyl-thiazolo[3,2-a]pyrimidin-5-one], `Cc1sc2nc(CN(C)c3ccc(Cl)cn3)cc(=O)n2c1C1CC1CO` (centres unmarked) [compound 163, 7-[[(5-chloro-2-pyridyl)-methyl-amino]methyl]-3-[2-(hydroxymethyl)cyclopropyl]-2-methyl-thiazolo[3,2-a]pyrimidin-5-one] is 200-fold lower in EC50: 73.5 µM for the first, 0.359 µM for the second.

`CCNC(=O)c1c(OCC)sc2nc(Cc3cccc(C(F)(F)F)c3F)cc(=O)n12` [compound 156, 2-ethoxy-N-ethyl-7-[[2-fluoro-3-(trifluoromethyl)phenyl]methyl]-5-oxo-thiazolo[3,2-a]pyrimidine-3-carboxamide] and `CCNC(=O)c1c(OCC(F)(F)F)sc2nc(Cc3cccc(C(F)(F)F)c3F)cc(=O)n12` [compound 165, N-ethyl-7-[[2-fluoro-3-(trifluoromethyl)phenyl]methyl]-5-oxo-2-(2,2,2-trifluoroethoxy)thiazolo[3,2-a]pyrimidine-3-carboxamide] are within 1.5-fold of each other in EC50: 1.47 µM for the first, 1.37 µM for the second.

Going from `Cc1sc2nc(Cn3nc(C(F)(F)F)cc3Cl)cc(=O)n2c1-c1cccnc1F` [compound 157, 7-[[5-chloro-3-(trifluoromethyl)pyrazol-1-yl]methyl]-3-(2-fluoro-3-pyridyl)-2-methyl-thiazolo[3,2-a]pyrimidin-5-one] to `Cc1sc2nc(Cn3nc(C(F)(F)F)cc3Cl)cc(=O)n2c1-c1ncc[nH]1` [compound 170, 7-[[5-chloro-3-(trifluoromethyl)pyrazol-1-yl]methyl]-3-(1H-imidazol-2-yl)-2-methyl-thiazolo[3,2-a]pyrimidin-5-one], the EC50 falls from 13 µM to 0.814 µM (16-fold).

Compared with `Cc1sc2nc(Cn3nc(Cl)cc3C(F)(F)F)cc(=O)n2c1-c1ncco1` [compound 159, 7-[[3-chloro-5-(trifluoromethyl)pyrazol-1-yl]methyl]-2-methyl-3-oxazol-2-yl-thiazolo[3,2-a]pyrimidin-5-one], `Cc1sc2nc(Cn3nc(Cl)cc3C(F)(F)F)cc(=O)n2c1C(F)(F)F` [compound 161, 7-[[3-chloro-5-(trifluoromethyl)pyrazol-1-yl]methyl]-2-methyl-3-(trifluoromethyl)thiazolo[3,2-a]pyrimidin-5-one] is 5.1-fold lower in EC50: 7.59 µM for the first, 1.49 µM for the second.

Going from `Cc1sc2nc(Cn3nc(C(F)(F)F)cc3Cl)cc(=O)n2c1C(F)(F)F` [compound 160, 7-[[5-chloro-3-(trifluoromethyl)pyrazol-1-yl]methyl]-2-methyl-3-(trifluoromethyl)thiazolo[3,2-a]pyrimidin-5-one] to `CC(=O)c1c(C(F)(F)F)sc2nc(Cn3nc(C(F)(F)F)cc3Cl)cc(=O)n12` [compound 166, 3-acetyl-7-[[5-chloro-3-(trifluoromethyl)pyrazol-1-yl]methyl]-2-(trifluoromethyl)thiazolo[3,2-a]pyrimidin-5-one], the EC50 rises from 0.753 µM to 2.69 µM (3.6-fold). The first is the more potent here.

First: N#CC1CC1c1c(C(F)(F)F)sc2nc(Cc3cccc(C(F)(F)F)c3F)cc(=O)n12 (centres unmarked) [compound 162, 2-[7-[[2-fluoro-3-(trifluoromethyl)phenyl]methyl]-5-oxo-2-(trifluoromethyl)thiazolo[3,2-a]pyrimidin-3-yl]cyclopropanecarbonitrile]
Second: CC[C@@H](C)NC(=O)c1c(C)sc2nc(Cc3cccc(C(F)(F)F)c3F)cc(=O)n12 [compound 179, 7-[[2-fluoro-3-(trifluoromethyl)phenyl]methyl]-2-methyl-N-[(1R)-1-methylpropyl]-5-oxo-thiazolo[3,2-a]pyrimidine-3-carboxamide]
The EC50 of the first is 3.5-fold lower: 0.199 µM for the first, 0.698 µM for the second.

`CC(=O)c1c(C(F)(F)F)sc2nc(Cn3nc(Cl)cc3C(F)(F)F)cc(=O)n12` [compound 167, 3-acetyl-7-[[3-chloro-5-(trifluoromethyl)pyrazol-1-yl]methyl]-2-(trifluoromethyl)thiazolo[3,2-a]pyrimidin-5-one] and `C=C(C)c1c(C(F)(F)F)sc2nc(Cn3nc(C(F)(F)F)cc3Cl)cc(=O)n12` [compound 169, 7-[[5-chloro-3-(trifluoromethyl)pyrazol-1-yl]methyl]-3-isopropenyl-2-(trifluoromethyl)thiazolo[3,2-a]pyrimidin-5-one] are within 1.5-fold of each other in EC50: 5.26 µM for the first, 7.46 µM for the second.

Going from `O=c1cc(Cn2nc(C(F)(F)F)cc2Cl)nc2sc(C(F)(F)F)c(-c3cncnc3)n12` [compound 171, 7-[[5-chloro-3-(trifluoromethyl)pyrazol-1-yl]methyl]-3-pyrimidin-5-yl-2-(trifluoromethyl)thiazolo[3,2-a]pyrimidin-5-one] to `O=c1cc(Cn2nc(Cl)cc2C(F)(F)F)nc2sc(C(F)(F)F)c(-c3cncnc3)n12` [compound 172, 7-[[3-chloro-5-(trifluoromethyl)pyrazol-1-yl]methyl]-3-pyrimidin-5-yl-2-(trifluoromethyl)thiazolo[3,2-a]pyrimidin-5-one], the EC50 rises from 1.21 µM to 27.6 µM (23-fold). The first is the more potent here.

First: O=c1cc(Cn2nc(Cl)cc2C(F)(F)F)nc2sc(C(F)(F)F)c(-c3cccnc3)n12 [compound 173, 7-[[3-chloro-5-(trifluoromethyl)pyrazol-1-yl]methyl]-3-(3-pyridyl)-2-(trifluoromethyl)thiazolo[3,2-a]pyrimidin-5-one]
Second: O=c1cc(Cn2nc(C(F)(F)F)cc2Cl)nc2sc(C(F)(F)F)c(C3CC3)n12 [compound 184, 7-[[5-chloro-3-(trifluoromethyl)pyrazol-1-yl]methyl]-3-cyclopropyl-2-(trifluoromethyl)thiazolo[3,2-a]pyrimidin-5-one]
The EC50 of the first is 2.5-fold higher: 24.7 µM for the first, 9.99 µM for the second.

Compared with `CCNC(=O)c1c(OCC(F)(F)F)sc2nc(Cn3nc(C(F)(F)F)cc3Cl)cc(=O)n12` [compound 174, 7-[[5-chloro-3-(trifluoromethyl)pyrazol-1-yl]methyl]-N-ethyl-5-oxo-2-(2,2,2-trifluoroethoxy)thiazolo[3,2-a]pyrimidine-3-carboxamide], `CCNC(=O)c1c(OCC)sc2nc(Cn3nc(C(F)(F)F)cc3Cl)cc(=O)n12` [compound 175, 7-[[5-chloro-3-(trifluoromethyl)pyrazol-1-yl]methyl]-2-ethoxy-N-ethyl-5-oxo-thiazolo[3,2-a]pyrimidine-3-carboxamide] is 1.9-fold lower in EC50: 1.67 µM for the first, 0.864 µM for the second.

Going from `CCNC(=O)c1c(OCC)sc2nc(Cn3nc(Cl)cc3C(F)(F)F)cc(=O)n12` [compound 176, 7-[[3-chloro-5-(trifluoromethyl)pyrazol-1-yl]methyl]-2-ethoxy-N-ethyl-5-oxo-thiazolo[3,2-a]pyrimidine-3-carboxamide] to `Cc1sc2nc(Cn3nc(Cl)cc3C(F)(F)F)cc(=O)n2c1C(=O)C(C)C` [compound 178, 7-[[3-chloro-5-(trifluoromethyl)pyrazol-1-yl]methyl]-2-methyl-3-(2-methylpropanoyl)thiazolo[3,2-a]pyrimidin-5-one], the EC50 falls from 8.92 µM to 0.354 µM (25-fold).

Going from `Cc1sc2nc(Cn3nc(C(F)(F)F)cc3Cl)cc(=O)n2c1C(=O)C(C)C` [compound 177, 7-[[5-chloro-3-(trifluoromethyl)pyrazol-1-yl]methyl]-2-methyl-3-(2-methylpropanoyl)thiazolo[3,2-a]pyrimidin-5-one] to `COCc1c(C)sc2nc(Cn3nc(C(F)(F)F)cc3Cl)cc(=O)n12` [compound 183, 7-[[5-chloro-3-(trifluoromethyl)pyrazol-1-yl]methyl]-3-(methoxymethyl)-2-methyl-thiazolo[3,2-a]pyrimidin-5-one], the EC50 rises from 0.123 µM to 5.29 µM (43-fold). The first is the more potent here.

`CC[C@H](C)NC(=O)c1c(C)sc2nc(Cc3cccc(C(F)(F)F)c3F)cc(=O)n12` [compound 180, 7-[[2-fluoro-3-(trifluoromethyl)phenyl]methyl]-2-methyl-N-[(1S)-1-methylpropyl]-5-oxo-thiazolo[3,2-a]pyrimidine-3-carboxamide] and `Cc1sc2nc(Cn3nc(C(F)(F)F)cc3Cl)cc(=O)n2c1Cn1cccn1` [compound 186, 7-[[5-chloro-3-(trifluoromethyl)pyrazol-1-yl]methyl]-2-methyl-3-(pyrazol-1-ylmethyl)thiazolo[3,2-a]pyrimidin-5-one] are within 1.5-fold of each other in EC50: 2.94 µM for the first, 3.85 µM for the second.

Compared with `Cc1sc2nc(CN(C)c3ccc(F)cn3)cc(=O)n2c1C1CC1CO` (centres unmarked) [compound 182, 7-[[(5-fluoro-2-pyridyl)-methyl-amino]methyl]-3-[2-(hydroxymethyl)cyclopropyl]-2-methyl-thiazolo[3,2-a]pyrimidin-5-one], `Cc1sc2nc(Cn3nc(C(F)(F)F)cc3Cl)cc(=O)n2c1CS(C)(=O)=O` [compound 185, 7-[[5-chloro-3-(trifluoromethyl)pyrazol-1-yl]methyl]-2-methyl-3-(methylsulfonylmethyl)thiazolo[3,2-a]pyrimidin-5-one] is 100-fold higher in EC50: 0.175 µM for the first, 17.8 µM for the second. The first is the more potent here.
